According to patent US6916472B2, “PON3 and uses thereof” (Regents of the University of Michigan, priority 2000, dated 2005):

How the values were obtained:
rabbit serum PON3 = biological target: T1, rabbit serum PON3 (Oryctolagus cuniculus, UniProt Q9BGN0); assay: Hydrolytic activity of purified rabbit serum PON3 with paraoxon, aromatic esters and lactones; type: biochemical; settings: for PON3 (rate of hydrolysis of substrate) / PON3 hydrolytic activity with substrate (in words): purified rabbit serum PON3; for PON3 (rate of hydrolysis of substrate): 25° C.; for PON1/PON3 Ratio: ratio of hydrolysis rates of PON1 and PON3
T1 construct: from tissue; host or cells: rabbit serum
T1 sequence (Q9BGN0 2-354 limits assumed): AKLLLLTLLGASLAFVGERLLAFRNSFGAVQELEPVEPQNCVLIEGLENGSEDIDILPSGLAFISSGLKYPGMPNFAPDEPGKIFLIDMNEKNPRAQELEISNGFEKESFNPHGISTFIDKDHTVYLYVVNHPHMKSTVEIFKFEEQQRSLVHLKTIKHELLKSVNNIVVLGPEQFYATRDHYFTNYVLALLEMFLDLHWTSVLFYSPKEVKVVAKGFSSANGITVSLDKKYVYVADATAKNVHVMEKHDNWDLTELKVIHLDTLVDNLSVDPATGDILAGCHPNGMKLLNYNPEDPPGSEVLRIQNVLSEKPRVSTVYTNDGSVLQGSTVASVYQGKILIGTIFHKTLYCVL
Experimental: (§1) Esterase activities with substrates: phenyl acetate, S-phenyl thioacetate, α-naphtyl acetate and paraoxon were measured as described by Kuo and La Du (Kuo and La Du, Drug Metab. Dispos., 23:335 [1995]; Qan et al., Drug Metab Dispos, 19:100-106 [1991]. For example, arylesterase activity is measured using a molar difference extinction coefficient (difference in extinction coefficients of phenol vs. phenol acetate) of 1,310 M^−1 cm^−1, at 270 nm with 1.0 mM phenyl acetate in 50 mM Tris/HCl (pH 8.0):1.0 mM CaCl2 buffer (Gan et al., supra). For the hydrolysis of thiophenyl acetate, the substrate is dissolved in methanol, and the reaction cuvettes contain 1.0 mM substrate in 50 mM Tris/HCl (pH 8.0):1.0 mM CaCl2 buffer. The product, thiophenol, reacts with 5,5′-dithiobis(2-nitrobenzoic acid), and activity is calculated from a molar difference extinction coefficient of 13,600 M^−1 cm^−1 at 412 nm (Augustinsson and Axenfors, Anal. Biochem., 48:428 [1972]). For the hydrolysis of α-naphtyl acetate, substrates are dissolved in ethylene glycol monomethyl ether, and the reaction cuvettes contain 0.5 mM substrate in 50 mM Tris/HCl (pH 8.0):1.0 mM CaCl2 buffer. Enzymatic activities are calculated from the molar extinction coefficients of 23,170 M^−1 cm^−1 at 235 nm. PON activity is measured with 1.0 mM paraoxon in 50 mM glycine:NaOH buffer (pH 10.5):1.0 mM CaCl2 with or without 1.0 M NaCl. Enzymatic activities were calculated from a molar extinction coefficient of 18,290 M^−1 cm^−1 at 412 nm (Gan et al., supra). All enzymatic assays are performed at 25° C. For each assay, 5 μl of purified PON (1.5-2.5 μg of enzyme protein) is added to an assay cuvette. For all substrates, one unit of enzymatic activity is defined as 1 μmol of substrate hydrolyzed/min.
(§2) Hydrolysis of aromatic lactones was monitored by the increase in UV absorbance at 270 nm (dihydrocoumarin), 274 nm (2-coumaranone), and 290 nm (homogentisic acid lactone). Lactones were purchased from Sigma. In a typical experiment a cuvette contained 1 mM substrate (from a […] stock solution, dissolved in methanol) in 50 mM Tris/HCl (pH 8.0), 1 mM CaCl2 and 5-20 μl enzyme source in a total volume of 1 ml. The molar difference extinction coefficients (difference in extinction coefficients of substrate and product) used to calculate the rate of hydrolysis were 1295, 876, and 816 M^−1 cm^−1 for dihydrocoumarin, 2-coumaranone and homogentisic acid lactone, respectively.
(§3) The hydrolysis of other lactones was followed by a calorimetric assay with phenol red (Billecke, et al., Chem Biol Interact, 119-120:251-256, [1999]). The reaction cuvette contained 1 mM substrate (from a 100 mM stock solution, dissolved in methanol) in 2 mM HEPES at starting pH 8.0, 1 mM CaCl2, 0.004% (106 μM) phenol red, 0.005% bovine albumin, and 5-20 μl enzyme solution in a total volume of 1 ml. The rate of acid production was followed by monitoring the increase in absorbance at 422 nm as the color changed from red to yellow. The rate of hydrolysis was derived from a calibration curve obtained using known amounts of HCl.
(§4) All the above assays (Sections, A, B, and C) were performed at 25° C. using a dual beam Cary 3E […] Spectrophotometer (Varian). Reference cuvettes containing the appropriate buffer plus substrate were used in each assay to correct for any spontaneous hydrolysis.

rabbit serum PON1 = biological target: T2, rabbit serum PON1 (Oryctolagus cuniculus, UniProt P27170); assay: Hydrolytic activity of purified rabbit serum PON1 with paraoxon, aromatic esters and lactones; type: biochemical; settings: 25° C.
T2 construct: PON 1 was purified further by pooling the fractions with highest arylesterase activity from a second DEAE column; from tissue; host or cells: rabbit serum
T2 sequence (P27170 whole entry Y185T): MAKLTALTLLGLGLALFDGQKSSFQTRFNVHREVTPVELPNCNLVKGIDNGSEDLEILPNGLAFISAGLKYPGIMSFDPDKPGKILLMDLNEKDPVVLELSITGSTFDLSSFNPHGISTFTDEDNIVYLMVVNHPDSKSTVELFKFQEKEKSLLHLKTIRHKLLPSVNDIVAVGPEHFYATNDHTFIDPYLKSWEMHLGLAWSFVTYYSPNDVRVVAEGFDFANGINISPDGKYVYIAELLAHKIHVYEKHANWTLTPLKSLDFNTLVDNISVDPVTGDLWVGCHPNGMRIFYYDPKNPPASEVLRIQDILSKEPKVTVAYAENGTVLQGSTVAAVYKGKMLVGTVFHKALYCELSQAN
Experimental: as §1, §2, §3, §4

PON3 = biological target: T3, PON3 (Oryctolagus cuniculus, UniProt Q9BGN0); assay: Hydrolysis of statin lactones by PON3; type: biochemical, rabbit
T3 construct: from tissue; host or cells: rabbit serum
T3 sequence (Q9BGN0 2-354 limits assumed): as the sequence (Q9BGN0 2-354 limits assumed) above
Experimental: The hydrolysis of the statin lactones (mevastatin, lovastatin and simvastatin) was analyzed by high performance liquid chromatography (HPLC) using a Beckman System Gold HPLC with a Model 126 Programmable Solvent Module, a Model 168 Diode Array Detector set at 238 nm, a Model 7125 Rheodyne manual injector valve with a 20 μl loop, and a Beckman ODS Ultrasphere column (C 18, 250×4.6 mm, 5 μm). Lovastatin (Mevacor) and simvastatin were purchased as 20 mg tablets from Merck, from which the lactones were extracted with chloroform, evaporated to dryness and redissolved in methanol. Mevastatin was purchased from Sigma.
In a final volume of 1 ml, 10-200 μl of enzyme solution and 10 μl of substrate solution in methanol (0.5 mg/ml) were incubated at 25° C. in 50 mM Tris/HCl (pH 7.6), 1 mM CaCl2. […]
Samples were eluted isocratically at a flow rate of 1.0 ml/min with a mobile phase consisting of the following: A=acetic acid/acetonitrile/water (2:249:249, v/v/v) and B=acetonitrile, in A/B ratios of 50/50, 45/55 and 40/60 for mevastatin, lovastatin and simvastatin, respectively. […] Response factors for the acid products were calculated from the peak heights after complete alkaline hydrolysis of the lactones in 0.02 M NAOH for 2-24 hours at 25° C.

Compound | PON3 (rate of hydrolysis of substrate) (rabbit serum PON3) | PON1/PON3 Ratio (rabbit serum PON3) | PON1 (rate of hydrolysis of substrate) (rabbit serum PON1) [µmol/min/mg] | PON3 hydrolytic activity with substrate (in words) (rabbit serum PON3) | hydrolysis of lactone drug by PON3 (in words) (PON3)
CCCCC1CCCC(=O)O1 (stereo not drawn) [δ-Nonalactone] | 44 µmol/min/mg | 3.4 | 142 |  | 
CCCCC1OC(=O)CC1C (stereo not drawn) [β-methyl-γ-octalactone] | 3 µmol/min/mg | 12 | 34.8 |  | 
O=C1CCC(c2ccccc2)O1 (stereo not drawn) [γ-phenyl-γ-butyrolactone] | 20.4 µmol/min/mg | 10 | 203 |  | 
CC(=O)Oc1ccccc1 [Phenyl Acetate] | 1.0 µmol/min/mg | 769 | 768.7 | very poor substrates | 
O=C1Cc2ccccc2O1 [2-Coumaronone] | 32.4 µmol/min/mg | 4.0 | 136.6 |  | 
CCOP(=O)(OCC)Oc1ccc([N+](=O)[O-])cc1 [Paraoxon] | <0.0075^1 μmol/min/mg | 638 | 4.76 | very poor substrates | 
CC1=CCC(=O)O1 [α-Angelica lactone] | 3.4 µmol/min/mg | 52 | 175.1 |  | 
CCCCCC1CCC(=O)O1 (stereo not drawn) [γ-Nonalactone] | 60 µmol/min/mg | 1.3 | 79.6 |  | 
δ-Undecalactone | 90 µmol/min/mg | 2.1 | 186.8 |  | 
CC1CCCC(=O)O1 (stereo not drawn) [δ-Hexalactone] | 3.6 µmol/min/mg | 58 | 207 |  | 
O=C1Oc2ccccc2C1Br (stereo not drawn) [α-Br-2-Coumaronone] | 2.8 µmol/min/mg | 97 | 270.1 |  | 
CCCC1CCC(=O)O1 (stereo not drawn) [γ-Heptalactone] | 8.6 µmol/min/mg | 12 | 107 |  | 
C=C1CCC(=O)O1 [γ-methylene-γ-butyrolactone] | 12 µmol/min/mg | 52 | 622 |  | 
CCCCC1CCC(=O)O1 (stereo not drawn) [γ-Octalactone] | 29 µmol/min/mg | 3.6 | 104.5 |  | 
CC[C@H](C)C(=O)O[C@H]1C[C@@H](C)C=C2C=C[C@H](C)[C@H](CC[C@@H]3C[C@@H](O)CC(=O)O3)[C@H]21 [lovastatin] |  |  |  |  | can also hydrolyse
CCCCCCCC1CCC(=O)O1 (stereo not drawn) [γ-Undecalactone] | 44.2 µmol/min/mg | 2 | 87.4 |  | 
CC1CCC(=O)O1 (stereo not drawn) [γ-Valerolactone] | 3.0 µmol/min/mg | 26 | 78.4 |  | 
CC(=O)Oc1ccc2ccccc2c1 [β-Naphtyl Acetate] | 4.6 µmol/min/mg | 30 | 138.8 |  | 
CCCCCCCC1CCCC(=O)O1 (stereo not drawn) [δ-Dodecalactone] | 98.2 µmol/min/mg | 1.8 | 179.4 |  | 
CCCCCCC1CCC(=O)O1 (stereo not drawn) [γ-Decalactone] | 50.2 µmol/min/mg | 1.8 | 92 |  | 
CCCCCC1CCCC(=O)O1 (stereo not drawn) [δ-Decalactone] | 73 µmol/min/mg | 1.8 | 134.8 |  | 
